# Results published in ChEMBL document CHEMBL1136349, “Identification of a monoacid-based, cell permeable, selective inhibitor of protein tyrosine phosphatase 1B” (Bioorg Med Chem Lett, 2003).
# Test system: Caco-2
# Assay: Papp in Caco-2 permeability assay.
# Assay type: functional, cell-based
# Conditions: Homo sapiens
row,Compound,Papp [×10⁻⁶ cm/s]
1,COC(=O)c1c(O)cccc1OCCCCNC(=O)[C@H](Cc1ccc(OCC(=O)O)cc1)NC(=O)OC(C)(C)C,10
2,CCc1cc(CC(NC(C)=O)C(=O)NCCCCOc2cccc(O)c2C(=O)OC)ccc1N(C(=O)C(=O)O)c1ccccc1C(=O)O (stereo not given),< 1
3,COC(=O)c1c(O)cccc1OCCCCNC(=O)[C@H](Cc1ccc(OCC(=O)O)c(O)c1)NC(C)=O,> 10
4,COC(=O)c1c(O)cccc1OCCCCNC(=O)[C@H](Cc1ccc(NC(=O)C(=O)O)cc1)NC(=O)OC(C)(C)C,< 1

# Biological target: T1, Tyrosine-protein phosphatase non-receptor type 1 (Homo sapiens, UniProt P18031)
# T1 sequence (P18031 whole entry): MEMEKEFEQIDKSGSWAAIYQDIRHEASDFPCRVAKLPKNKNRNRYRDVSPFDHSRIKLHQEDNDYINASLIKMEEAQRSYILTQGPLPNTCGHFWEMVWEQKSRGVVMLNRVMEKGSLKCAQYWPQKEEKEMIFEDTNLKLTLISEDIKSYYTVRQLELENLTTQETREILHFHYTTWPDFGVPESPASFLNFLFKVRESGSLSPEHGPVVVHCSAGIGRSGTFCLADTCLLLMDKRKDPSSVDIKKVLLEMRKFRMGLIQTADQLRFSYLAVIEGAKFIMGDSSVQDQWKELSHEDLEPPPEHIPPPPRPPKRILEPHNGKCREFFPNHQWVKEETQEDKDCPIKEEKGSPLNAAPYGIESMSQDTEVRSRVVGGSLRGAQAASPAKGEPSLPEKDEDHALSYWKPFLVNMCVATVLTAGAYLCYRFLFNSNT
# Assay: Inhibition of Protein-tyrosine phosphatase 1B
# Conditions: not given
row,Compound,Ki [µM]
1,COC(=O)c1c(O)cccc1OCCCCNC(=O)[C@H](Cc1ccc(NC(=O)c2ncccc2O)cc1)NC(C)=O,> 200
2,COC(=O)c1c(O)cccc1OCCCCNC(=O)[C@H](Cc1ccc(NCC(=O)O)cc1)NC(=O)OC(C)(C)C,> 200
3,COC(=O)c1c(O)cccc1OCCCCNC(=O)[C@H](Cc1ccc(OCC(=O)O)c(C(=O)O)c1)NC(C)=O,2.2
4,COC(=O)c1c(O)cccc1OCCCCNC(=O)[C@H](Cc1ccc(NC(=O)C(F)(F)F)cc1)NC(C)=O,> 200
5,COC(=O)c1c(O)cccc1OCCCCNC(=O)[C@H](Cc1ccc(NC(=O)C(=O)O)cc1)NC(C)=O,6.1
6,COC(=O)c1c(O)cccc1OCCCCNC(=O)[C@H](Cc1ccc(NC(=O)CO)cc1)NC(C)=O,> 200
7,COC(=O)c1c(O)cccc1OCCCCNC(=O)[C@H](Cc1ccc(/C=C\C(=O)O)cc1)NC(=O)OC(C)(C)C,> 200
8,COC(=O)c1c(O)cccc1OCCCCNC(=O)[C@H](Cc1ccc(OC(CO)C(=O)O)cc1)NC(=O)OC(C)(C)C (stereo not given in full),> 200
9,COC(=O)c1c(O)cccc1OCCCCNC(=O)[C@H](Cc1ccc(OCC(=O)O)c(N)c1)NC(C)=O,> 200
10,CCCCC(C)NC(=O)[C@H](Cc1ccc(OCC(=O)O)c(C2N=NN=N2)c1)NC(=O)[C@H](Cc1ccccc1)NC(=O)OC(C)(C)C (stereo not given in full),2
11,COC(=O)c1c(O)cccc1OCCCCNC(=O)[C@H](Cc1ccc(NS(=O)(=O)C(F)(F)F)cc1)NC(C)=O,> 200
